Data from patent US11213509B2, “Compositions and methods for treating traumatic brain injury” (Ischemix, LLC, priority 2017, dated 2022).

Tests used:
rat model of focal TBI = assay: Beam balance test, rat model of focal TBI (BCCI); type: in vivo
Text: BCCI TBI to the medial frontal cortex (MFC) was induced by a cortical contusion device (Custom Design & Fabrication, Inc [CDF], Richmond, Va.). This device creates a reliable contusion injury to the exposed area of the brain with a brass-tipped impounder. (Hoffman et al., 1994). Rats were anesthetized with isoflurane (5%) (Novaplus™), and 02 (300 cm^3/min), and mounted in a stereotaxic frame. Under aseptic conditions, a sagittal incision was made in the scalp and the fascia retracted to expose the cranium. Then, a 6-mm diameter trephine drill was used to open the skull immediately anterior to the bregma. TBI of the MFC was made with a 5-mm-diameter rounded brass impactor attached to a computer-controlled piston propelled electronically with following parameters: velocity=2.5 m/s; depth=3 mm; duration=100 ms). After BCCI, any cortical surface hemorrhaging was controlled and the fascia and scalp sutured. […]
The beam balance test examined vestibulomotor reflex activity of the animals after injury. […] The animal was gently placed on a suspended narrow beam 1.5 cm wide with a rough surface and the duration for which it remained on the beam was measured with a maximum cutoff time of 60 sec. […]
Data are presented as mean±SEM and analyzed by one-way repeated measures Analysis of variance (ANOVA) in order to test the effects of treatment on beam balance times and Morris water maze performance. […]

[1] = system: lipid peroxidation (4-HNE); assay: Lipid peroxidation by 4-hydroxynonenal (4-HNE) Western blot, focal TBI model in piglets; type: in vivo; conditions: cortical penumbra, ipsilateral; vs placebo, p<0.001
Method: Study Design: A blinded, placebo controlled proof of concept trial of CMX-2043 was conducted in four-week-old piglets (8-10 kg). […] Sixteen piglets (n=16) were designated into three cohorts: 1) Controlled cortical impact (CCI) at the rostral gyrus treated with a bolus of CMX-2043 (n=5), 2) CCI injured animals treated with placebo (n=5) and 3) sham animals (n=6). CMX-2043 treated animals received an intravenous loading bolus of CMX-2043 (13.4 mg/kg) 1 hour post-TBI and a 4.5 mg/kg bolus at 13 hours post-TBI. Subjects were intubated, ventilated and anesthesia maintained on isoflurane (1.0%). Buprenorphine (0.02 mg/kg IM) was administered for analgesia immediately following intubation. Monitors recorded oxygen saturation, heart rate, respiration rate, rectal temperature, and end tidal CO2. […] All piglets were sacrificed between 24-25 hours post-TBI.
Samples from the same ipsilateral injured region analyzed for mtROS were analyzed for oxidative damage by measuring 4-HNE as an assessment of lipid peroxidation by Western Blot analysis (EMD Millipore), normalized by GAPDH (EMD Millipore), and compared to placebo and shams.

[2] = system: fluid percussion model of diffused traumatic brain injury (TBI) in rats; assay: Limb placing test, fluid percussion model of diffused TBI; type: in vivo, rat; conditions: vs vehicle, p<0.001, starting 1 day following TBI
Method: On the day before TBI surgery (Day −1), rats were anesthetized with 3% isoflurane in a mixture of nitrous oxide and oxygen (2:1) for induction of anesthesia and then maintained at 1-3% isoflurane in a mixture of nitrous oxide and oxygen (2:1). The surgical site skin was shaved, and the rat was then placed in a stereotaxic frame. Buprenorphine SR, s.c, (0.9-1.2 mg/kg Zoopharm: Lot: BSR1-142111) and Cefazolin, i.p., (40-50 mg/kg; Hospira: Lot: 101D032) was given at this time. The skull was exposed through a midline incision. A parasagittal craniotomy (5 mm) using a trephine drill was performed at 1 mm posterior to bregma and 1 mm lateral to the midline (outer circumference). A sterile plastic injury tube (the plastic connector hub of a sterile needle cut 1 cm in length and trimmed to fill the craniotomy securely) was placed over the exposed dura and bonded by super glue to the skull. Dental cement was then poured around the injury tube to obtain a complete seal. After the dental cement had hardened, the injury tube was filled with sterile saline and the skin was closed by surgical clips. The animals were then returned to a clean home cage after recovery from the anesthesia.
On the day of TBI surgery (Day 0), rats were re-anesthetized with 3% isoflurane in a mixture of nitrous oxide and oxygen (2:1), intubated, connected to a respirator and ventilated with 1-2% isoflurane in a mixture of nitrous oxide and oxygen (2:1). […] The amplitude of the resulting pressure pulse was measured in atmospheres by a pressure transducer. […]
Dosing solutions were prepared in a blinded fashion with H, I, M, O and Z labels ready to use. […]
Limb placing tests were divided into both forelimb and hindlimb tests. For the forelimb-placing test, the examiner held the rat close to a tabletop and scored the rat's ability to place the forelimb on the tabletop in response to whisker, visual, tactile, or proprioceptive stimulation. For the hindlimb placing test, the examiner assessed the rat's ability to place the hindlimb on the tabletop in response to tactile and proprioceptive stimulation. […]

CC(NC(=O)C(CCC(=O)O)NC(=O)CCCCC1CCSS1)C(=O)O [CMX-2043, N—(R)-lipoyl-glutamylalanine]
Treatment efficacy in beam balance motor test (rat model of focal TBI; 30 mg/kg intravenously): not in the beam balance motor test | Beam balance time (rat model of focal TBI; Day 3 following injury, 30 mg/kg IV, all groups): less than 3 seconds | Lipid peroxidation (4-HNE) [1]: significant reduction in lipid peroxidation | Limb placing test recovery ([2]; 15 mg/kg i.v. at 30 minutes and 24 hours after TBI): superior recovery compared to vehicle-treated animals | Limb placing test recovery ([2]; 30 mg/kg i.v. at 30 minutes and 24 hours after TBI): superior recovery compared to vehicle-treated animals | Limb placing test recovery ([2]; 45 mg/kg i.v. at 30 minutes and 24 hours after TBI): superior recovery compared to vehicle-treated animals
